Consider two compounds from PMC10285409, “Identification and validation of G protein-coupled receptors modulating flow-dependent signaling pathways in vascular endothelial cells” (Frontiers in Molecular Biosciences, 2023).

In this assay the target is T1, LGR4 (Homo sapiens, UniProt Q9BXB1).
T1 sequence (Q9BXB1 25-951): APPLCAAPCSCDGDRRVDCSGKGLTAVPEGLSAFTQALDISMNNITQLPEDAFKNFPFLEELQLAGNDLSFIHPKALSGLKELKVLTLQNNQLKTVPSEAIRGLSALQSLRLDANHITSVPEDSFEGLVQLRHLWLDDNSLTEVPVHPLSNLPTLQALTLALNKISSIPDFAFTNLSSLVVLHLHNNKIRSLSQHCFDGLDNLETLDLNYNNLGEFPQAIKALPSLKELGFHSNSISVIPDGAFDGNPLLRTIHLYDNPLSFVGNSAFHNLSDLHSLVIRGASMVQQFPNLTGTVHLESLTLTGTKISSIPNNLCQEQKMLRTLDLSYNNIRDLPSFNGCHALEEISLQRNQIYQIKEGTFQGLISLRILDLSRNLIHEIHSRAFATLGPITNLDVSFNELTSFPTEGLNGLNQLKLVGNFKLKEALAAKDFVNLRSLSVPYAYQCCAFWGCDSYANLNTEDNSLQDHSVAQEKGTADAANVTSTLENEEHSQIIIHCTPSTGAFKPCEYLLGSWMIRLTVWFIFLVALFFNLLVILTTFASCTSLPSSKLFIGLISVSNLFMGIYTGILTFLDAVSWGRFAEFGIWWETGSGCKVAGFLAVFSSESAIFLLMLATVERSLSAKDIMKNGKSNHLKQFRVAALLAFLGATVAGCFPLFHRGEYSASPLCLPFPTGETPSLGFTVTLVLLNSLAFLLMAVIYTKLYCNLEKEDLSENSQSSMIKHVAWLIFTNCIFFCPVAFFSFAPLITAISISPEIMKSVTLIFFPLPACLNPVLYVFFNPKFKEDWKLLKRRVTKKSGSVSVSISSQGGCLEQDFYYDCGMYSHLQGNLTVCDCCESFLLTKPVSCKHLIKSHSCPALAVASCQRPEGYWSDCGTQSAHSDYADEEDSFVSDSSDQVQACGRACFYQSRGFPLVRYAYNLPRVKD
As to the kind of experiment: beta-arrestin recruitment enzyme complementation in CHO-K1 LGR4 cells; KLF2-luciferase activity lost on LGR4 knockdown. The class given is cell-based. A general note: Activated receptors often draw arrestin, which recruitment assays turn into a signal.

For `CCCCN(Cc1ccc(-c2ccccc2-c2nnn[nH]2)cc1)C(=O)NCc1ccc(Cl)cc1` [Compound 1], the EC50 was 27 µM.

In turn, `CCCCOC(=O)c1c(Cl)nc(CCCC)n1Cc1cccc2c1ccn2-c1ccccc1-c1nn[nH]n1` [Compound 2] gave an EC50 of 5 µM.

For orientation: EC50 means the concentration needed to bring the measured effect to its halfway point. Low readings indicate a more potent agent, high ones a less potent agent.
